For test [1], the target named is His-GST-TVMV-hRIPK1(1-324) (Homo sapiens (Human), UniProt Q13546). Briefly: RIPK1 HTRF Binding Assay. The settings on record: HTRF binding, 1 h at rt; read-out: RIPK1 (IC50). The essentials:
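HTRF probe-displacement binding: 1 nM His-GST-TVMV-hRIPK1(1-324) (baculovirus construct), 90.6 nM probe, 0.2 nM anti-GST-Tb in 20 mM HEPES, 10 mM MgCl2, 0.015% Brij-35, 4 mM DTT, 0.05 mg/mL BSA. Incubated 1 h at rt; FRET 520/495 nm ratio, inhibition relative to DMSO-only wells.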
On the technique in general: Time-resolved FRET reads energy transfer from a long-lived donor to a nearby acceptor.

The test system of test [2] is MLKL phosphorylation in HT29-L23 human colorectal adenocarcinoma cells. Put plainly: MLKL Phosphorylation High-Content Assay. As to conditions: 6 h, necroptosis induced with TNFα, SMAC mimetic and Z-VAD, read-out: pMLKL (IC50). The test is classed as cell-based. The essentials:
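HT29-L23 cells pretreated 30 min at 37 °C with compound (6.25 to 0.106 μM final), then necroptosis induced with TNFα 35 ng/mL, SMAC mimetic 700 nM and Z-VAD 140 nM for 6 h. Fixed cells immunostained for MLKL pS358 and imaged; IC50 and Ymax from 4-parameter logistic fit.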

pIC50: −log10 of the molar value. Structures can show the parent of a compound that is named as a salt. Where two headings read alike, the source gives them in different places.

His-GST-TVMV-hRIPK1(1-324), sequence (Q13546 1-324): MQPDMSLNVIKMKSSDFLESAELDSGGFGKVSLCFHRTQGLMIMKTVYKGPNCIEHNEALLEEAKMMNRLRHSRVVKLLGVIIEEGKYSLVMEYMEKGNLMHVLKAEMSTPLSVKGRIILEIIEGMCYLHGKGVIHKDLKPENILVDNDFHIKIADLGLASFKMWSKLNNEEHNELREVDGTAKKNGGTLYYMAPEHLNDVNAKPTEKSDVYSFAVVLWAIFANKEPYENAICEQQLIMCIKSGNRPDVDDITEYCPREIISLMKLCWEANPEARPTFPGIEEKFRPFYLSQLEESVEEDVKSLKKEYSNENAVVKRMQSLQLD

A word on the pIC50: it is the IC50 on a negative log10 scale, so that one unit is a factor of ten. For `[2H]C([2H])([2H])[C@@H](NC(=O)c1cc(-c2ccc3nc(NC(C)=O)cn3n2)cnc1C)c1cc(OC(F)(F)F)ccc1F` [Example 199, 5-{2-acetamidoimidazo[1,2-b]pyridazin-6-yl}-N-[(1R)-1-[2-fluoro-5-(trifluoromethoxy)phenyl](2,2,2-deutero)ethyl]-2-methylpyridine-3-carboxamide], the pIC50 is 7.89 in test [1] and 7.77 in test [2] (Homo sapiens).
As for `COc1ncc(-c2ccc3nc(NC(C)=O)cn3n2)cc1C(=O)NCc1c(F)cccc1OC1CCOCC1` [Example 128, 5-{2-acetamidoimidazo[1,2-b]pyridazin-6-yl}-N-{[2-fluoro-6-(oxan-4-yloxy)phenyl]methyl}-2-methoxypyridine-3-carboxamide, TFA], the figures for the negative-log IC50 (pIC50) in test [1] and in test [2] were 8.05 and 7.19, respectively.
Turning to `CC(=O)Nc1cn2nc(-c3cc(F)c(F)c(C(=O)NCc4cc(OC(F)(F)F)ccc4F)c3)ccc2n1` [Example 366, 5-{2-acetamidoimidazo [1,2-b]pyridazin-6-yl}-2,3-difluoro-N-{[2-fluoro-5-(trifluoromethoxy)phenyl]methyl} benzamide], the negative-log IC50 (pIC50) in test [1] is 7.89; in test [2] (Homo sapiens) it was 6.91.
In the same order, the values of `[2H]C([2H])([2H])Oc1ncc(-c2ccc3nc(NC(C)=O)cn3n2)cc1C(=O)NC(C)c1cc(C(F)(F)F)ccc1F` (stereo not shown) [Example 51, 5-{2-acetamidoimidazo[1,2-b]pyridazin-6-yl}-N-{1-[2-fluoro-5-(trifluoromethyl)phenyl]ethyl}-2-(D3)methoxypyridine-3-carboxamide] are 7.20 and 6.70.
In the same order, the values of `COc1ncc(-c2ccc3nc(NC(=O)C(C)(C)C#N)cn3n2)cc1C(=O)NCc1cc(F)cc(F)c1OCC1CC1` [Example 8, 5-[2-(2-Cyano-2,2-dimethylacetamido)imidazo[1,2-b]pyridazin-6-yl]-N-{[2-(cyclopropylmethoxy)-3,5-difluorophenyl]methyl}-2-methoxypyridine-3-carboxamide] are 7.41 and 7.39.
For `COc1nc(C)c(-c2ccc3nc(NC(C)=O)cn3n2)cc1C(=O)NCc1cc(OC(F)(F)F)ccc1F` [Example 311, 5-{2-acetamidoimidazo[1,2-b]pyridazin-6-yl}-N-{[2-fluoro-5-(trifluoromethoxy)phenyl]methyl}-2-methoxy-6-methylpyridine-3-carboxamide, TFA], the negative-log IC50 (pIC50) in test [1] is 8.22; in test [2] it was 8.40.
On to `[2H]C([2H])([2H])Oc1ncc(-c2ccc3nc(NC(C)=O)cn3n2)cc1C(=O)NCc1cc(F)cc(F)c1O[C@@H]1CCOC1` [Example 44, N-({3,5-difluoro-2-[(3R)-oxolan-3-yloxy]phenyl}methyl)-5-{2-acetamidoimidazo[1,2-b]pyridazin-6-yl}-2-(D3)methoxypyridine-3-carboxamide], for which the pIC50 in test [1] is 7.77; in test [2] (Homo sapiens) it was 7.15.
In the case of `CC(=O)Nc1cn2nc(-c3cc(C(=O)NCc4cc(F)cc(F)c4OC4CC(C)OC(C)C4)c(C)nc3C)ccc2n1` (stereo not shown) [Example 64, N-({2-[(2,6-dimethyloxan-4-yl)oxy]-3,5-difluorophenyl}methyl)-5-{2-acetamidoimidazo[1,2-b]pyridazin-6-yl}-2,6-dimethylpyridine-3-carboxamide], the pIC50 was 7.31 in test [1] and 7.35 in test [2] (Homo sapiens).
In the same order, the values of `COc1ncc(-c2ccc3nc(NC(C)=O)cn3n2)cc1C(=O)NCc1cc(F)cc(OCC2CC2)c1` [Example 140, N-{[3-(cyclopropylmethoxy)-5-fluorophenyl]methyl}-5-{2-acetamidoimidazo[1,2-b]pyridazin-6-yl}-2-methoxypyridine-3-carboxamide] are 7.77 and 7.11.
In the same order, the values of `COc1nc(C)c(-c2ccc3nc(NC(C)=O)cn3n2)cc1C(=O)NCc1ccccc1OCC1CCC(F)(F)CC1` [Example 310, N-({2-[(4,4-difluorocyclohexyl)methoxy]phenyl}methyl)-5-{2-acetamidoimidazo[1,2-b]pyridazin-6-yl}-2-methoxy-6-methylpyridine-3-carboxamide] are 7.68 and 6.90.
Take `[2H]C([2H])(Oc1c(F)cc(F)cc1CNC(=O)c1cc(-c2ccc3nc(NC(C)=O)c(C)n3n2)cnc1OC)C1CC1` [Example 259, N-({2-[cyclopropyl(deutero)methoxy]-3,5-difluorophenyl}methyl)-5-{2-acetamido-3-methylimidazo[1,2-b]pyridazin-6-yl}-2-methoxypyridine-3-carboxamide]: the values for the pIC50 in test [1] and in test [2] (Homo sapiens) were 8.52 and 7.89, respectively.
Consider `COc1ncc(-c2ccc3nc(NC(=O)C(C)C)cn3n2)cc1C(=O)NCc1cc(F)cc(F)c1OCC1CC1` [Example 5, N-{[2-(cyclopropylmethoxy)-3,5-difluorophenyl]methyl}-2-methoxy-5-[2-(2-methylpropanamido)imidazo[1,2-b]pyridazin-6-yl]pyridine-3-carboxamide], for which the negative-log IC50 (pIC50) in test [1] is 8.15; in test [2] (Homo sapiens), 7.96.
In the case of `CC(=O)Nc1cn2nc(-c3cnc(C)c(C(=O)NCc4cc(OCC5CC5)ccc4F)c3)ccc2n1` [Example 215, N-{[5-(cyclopropylmethoxy)-2-fluorophenyl]methyl}-5-{2-acetamidoimidazo[1,2-b]pyridazin-6-yl}-2-methylpyridine-3-carboxamide], the figures for the negative logarithm of the IC50 (pIC50) in test [1] and in test [2] (Homo sapiens) were 8.10 and 7.66, respectively.
Take `COc1c(F)cc(F)cc1CNC(=O)c1c(C)ccc(-c2ccc3nc(NC(C)=O)cn3n2)c1F` [Example 414, N-[(3,5-difluoro-2-methoxyphenyl)methyl]-3-{2-acetamidoimidazo [1,2-b]pyridazin-6-yl}-2-fluoro-6-methylbenzamide]: the negative-log IC50 (pIC50) in test [1] was 7.04; in test [2] (Homo sapiens), 6.42.
In the same order, the values of `CC(=O)Nc1cn2nc(-c3ccc(C(F)(F)F)c(C(=O)NCc4cc(C(F)(F)F)ccc4F)c3)ccc2n1` [Example 385, 5-{2-acetamidoimidazo [1,2-b]pyridazin-6-yl}-N-{[2-fluoro-5-(trifluoromethyl)phenyl]methyl}-2-(trifluoromethyl) benzamide] are 7.24 and 6.72.
Take `[2H]C([2H])([2H])Oc1nc(C)c(-c2ccc3nc(NC(C)=O)cn3n2)cc1C(=O)NCc1cc(F)cc(F)c1OC1CC(C)OC(C)C1` (stereo not shown) [Example 167, N-({2-[(2,6-dimethyloxan-4-yl)oxy]-3,5-difluorophenyl}methyl)-5-{2-acetamidoimidazo[1,2-b]pyridazin-6-yl}-2-(deutero)methoxy-6-methylpyridine-3-carboxamide]: the negative logarithm of the IC50 (pIC50) in test [1] was 7.74; in test [2] (Homo sapiens) it was 7.89.
Consider `COc1ncc(-c2ccc3nc(NC(C)=O)cn3n2)cc1C(=O)NCc1c(F)ccc(F)c1OCC1CC1` [Example 127, N-{[2-(cyclopropylmethoxy)-3,6-difluorophenyl]methyl}-5-{2-acetamidoimidazo[1,2-b]pyridazin-6-yl}-2-methoxypyridine-3-carboxamide], for which the negative logarithm of the IC50 (pIC50) in test [1] is 8.40; in test [2] (Homo sapiens) it was 7.48.
For the molecule `CC(=O)Nc1cn2nc(-c3ccc(C)c(C(=O)NCc4ccc(F)cc4C(=O)N4CCC(F)(F)C4)c3)ccc2n1` [Example 405, N-{[2-(3,3-difluoropyrrolidine-1-carbonyl)-4-fluorophenyl]methyl}-5-{2-acetamidoimidazo [1,2-b]pyridazin-6-yl}-2-methylbenzamide], the negative logarithm of the IC50 (pIC50) is 7.85 in test [1] and 7.00 in test [2] (Homo sapiens).
In the case of `[2H]C([2H])([2H])Oc1nc(C)c(-c2ccc3nc(NC(C)=O)cn3n2)cc1C(=O)NCc1cc(F)cc(F)c1OC([2H])([2H])C1CC1` [Example 174, N-({2-[cyclopropyl(deutero)methoxy]-3,5-difluorophenyl}methyl)-5-{2-acetamidoimidazo[1,2-b]pyridazin-6-yl}-2-(deutero)methoxy-6-methylpyridine-3-carboxamide], the pIC50 is 8.52 in test [1] and 9.00 in test [2] (Homo sapiens).
In the same order, the values of `COc1ncc(-c2ccc3nc(NC(C)=O)c(C)n3n2)cc1C(=O)NCc1cc(OC(F)(F)F)ccc1F` [Example 6, 5-{2-acetamido-3-methylimidazo[1,2-b]pyridazin-6-yl}-N-{[2-fluoro-5-(trifluoromethoxy)phenyl]methyl}-2-methoxypyridine-3-carboxamide] are 7.60 and 8.00.
Regarding `CC(=O)Nc1cn2nc(-c3ccc(C)c(C(=O)NCc4cc(F)ccc4C(=O)N4CCCCC4)c3)ccc2n1` [Example 408, 5-{2-acetamidoimidazo [1,2-b]pyridazin-6-yl}-N-{[5-fluoro-2-(piperidine-1-carbonyl)phenyl]methyl}-2-methylbenzamide], the pIC50 in test [1] and in test [2] (Homo sapiens) was 8.10 in each case.
Take `COc1nc(C)c(-c2ccc3nc(NC(C)=O)cn3n2)cc1C(=O)NC(C)c1cccc(OC(F)(F)F)c1` (stereo not shown) [Example 289, 5-{2-acetamidoimidazo[1,2-b]pyridazin-6-yl}-2-methoxy-6-methyl-N-{1-[3-(trifluoromethoxy)phenyl]ethyl}pyridine-3-carboxamide]: the pIC50 in test [1] and in test [2] was 7.80 each time.
On to `COc1nc(C)c(-c2ccc3nc(NC(C)=O)cn3n2)cc1C(=O)NCc1ncccc1OCC1CCCC1` [Example 312, N-{[3-(cyclopentylmethoxy)pyridin-2-yl]methyl}-5-{2-acetamidoimidazo[1,2-b]pyridazin-6-yl}-2-methoxy-6-methylpyridine-3-carboxamide, 2 TFA], for which the pIC50 in test [1] was 8.15; in test [2], 7.42.

Source of the values: patent publication US11440913B2, “Aminoimidazopyridazines as kinase inhibitors” (BRISTOL-MYERS SQUIBB COMPANY, priority 2017, dated 2022).
